Data on one compound can be found in ChEMBL document CHEMBL3886432, “Purinylpyridinylamino-2,4-difluorophenyl sulfonamide derivative, pharmaceutically acceptable salt thereof, preparation method thereof, and pharmaceutical composition with inhibitory activity against Raf kinase, containing same as active ingredient” (2015).

This test concerns the target Serine/threonine-protein kinase B-raf (Homo sapiens, UniProt P15056). The test is described as follows: The solutions in the tube were collected on the bottom via centrifugation and were reacted at 30° C. for 30 minutes.

Sequence of Serine/threonine-protein kinase B-raf (P15056 whole entry): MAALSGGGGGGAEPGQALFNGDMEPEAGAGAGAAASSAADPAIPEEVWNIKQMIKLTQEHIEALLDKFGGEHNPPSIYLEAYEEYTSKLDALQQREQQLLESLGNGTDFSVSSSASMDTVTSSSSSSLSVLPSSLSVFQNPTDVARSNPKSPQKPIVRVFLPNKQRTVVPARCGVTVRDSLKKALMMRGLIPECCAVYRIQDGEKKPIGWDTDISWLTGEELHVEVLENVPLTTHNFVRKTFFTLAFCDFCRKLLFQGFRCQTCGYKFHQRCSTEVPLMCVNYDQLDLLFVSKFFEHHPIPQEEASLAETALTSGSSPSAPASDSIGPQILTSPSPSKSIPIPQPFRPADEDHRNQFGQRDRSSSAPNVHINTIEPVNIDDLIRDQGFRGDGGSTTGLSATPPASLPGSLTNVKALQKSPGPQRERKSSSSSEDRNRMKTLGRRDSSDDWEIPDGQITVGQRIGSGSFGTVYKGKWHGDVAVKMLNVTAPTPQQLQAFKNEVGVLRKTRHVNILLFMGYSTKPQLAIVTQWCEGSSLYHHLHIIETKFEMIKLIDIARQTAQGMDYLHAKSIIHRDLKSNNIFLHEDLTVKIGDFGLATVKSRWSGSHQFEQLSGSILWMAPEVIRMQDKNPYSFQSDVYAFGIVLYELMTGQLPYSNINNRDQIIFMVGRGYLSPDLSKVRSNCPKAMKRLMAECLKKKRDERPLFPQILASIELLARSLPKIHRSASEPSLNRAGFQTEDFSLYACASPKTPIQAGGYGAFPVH

Usually IC50 stands for the concentration that gives 50% inhibition. A higher IC50 goes with weaker potency. In turn, `O=S(=O)(Nc1ccc(F)c(Nc2ncccc2-c2ncnc3[nH]cnc23)c1F)c1ccc(Cl)s1` yielded an IC50 of 20 nM.
